Measurements as given in US20040198756A1, “Medicaments” (priority 2001, published 2004).
Where a name gives a salt, the structure may show the parent alone.

System: S. aureus WCUH29, S. pneumoniae 1629, H. influenzae ATCC 51907, M. catarrhalis Ravisio
Test: MIC of further test compounds against an alternative selection of organisms
Type: cell-based
Conditions: read-out: MIC values versus some of these organisms
Experimental: The MIC (μg/ml) of further test compounds against an alternative selection of organisms was determined:
S. aureus WCUH29, S. pneumoniae 1629, H. influenzae ATCC 51907, M. catarrhalis Ravisio.

For `COc1ccc2nccc(NC(=O)C3(C(F)(F)F)CCN(CCc4cc5c(nn4)SCC(=O)N5)CC3)c2n1` [Example 24, 1-[2-(6-Oxo-6,7-dihydro-5H-8-thia-1,2,5-triazanaphthalen-3-yl)ethyl]-4-trifluoromethylpiperidine-4-carboxylic acid (6-methoxy-[1,5]naphthyridin-4-yl) amide dihydrochloride], the MIC was ≤ 16 µg/mL.
